Experimental data reported in patent US20030229132A1, “Small molecule modulators of apoptosis” (priority 2002, published 2003).

How the values were obtained:
[1] = system: caspase-3 (DEVDase activity); test: DEVDase fluorescence screen in HeLa cell S-100 cytoplasmic extracts; type: biochemical; conditions: in vitro fluorescence assay, HeLa S-100 extracts with cyto c
Excerpt: In order to identify compounds that modulate apoptosis, a chemical genetics approach was utilized to screen for molecules that target components of the apoptosis pathway (see, T. U. Mayer et al., Science 286, 971-4 (1999)). An in vitro screen using cytoplasmic extracts was adapted for apoptosis to a 96-well format and used to test an in-house library of ˜3500 compounds (see, T. Fernandes-Alnemri et al, Proc Natl Acad Sci USA 93, 7464-9 (1996); X. Liu, C. N. Kim, J. Yang, R. Jemmerson, X. Wang, Cell 86, 147-57 (1996); L. M. Leoni et al., Proc Natl Acad Sci USA 95, 9567-71 (1998)). Briefly, individual compounds were added to HeLa cell S-100 cytoplasmic extracts at a final concentration of 1 mM and apoptosis was induced by adding bovine heart cyto c (HeLa cell cytoplasmic extracts were prepared according to previously published reports (see, P. Li et al., Cell 91, 479-89 (1997)). Compounds were distributed into 96-well microtiter plates at a final concentration of 1 mM. To each well was added 250 μg of total protein from cytoplasmic extracts in HEB buffer (50 mM Hepes pH 7.4, 50 mM KCl, 5 mM EGTA, 2 mM MgCl), with 2 mM DTT, 2 μM cyto c, and 0.5 μM DEVD-AFC substrate in a total of 150 μL. Plates were incubated at 37° C. and fluorescence was read in a LJL Biosystems plate reader at 10 min intervals). Activation of caspase-3 was monitored by cleavage of a fluorogenic substrate, Asp-Glu-Val-Asp-7-amino-4-trifluoromethylcoumarin (DEVDase activity). As designed, the DEVDase fluorescence screen encompasses the release of cyto c from the mitochondria to the activation of caspase-3. Possible targets include cyto c, Apaf-1, caspase-9, caspase-3, inhibitors of apoptosis (IAPs), and possible unidentified components present in the cytosol.

[2] = system: Jurkat cells; test: PARP cleavage in Jurkat cells (immunoblot); type: cell-based, human; conditions: 50 μM compound or 1 μM staurosporin, 6 hr
Experimental: (C) DNA fragmentation analysis. […] Cell viability assay.
Compounds were then tested for their ability to induce apoptosis in live cells. The ability of the compounds to activate caspase-3 in a Jurkat cell line was first assayed. […] This same pattern was seen when we assayed for the cleavage of poly (ADP-ribose) polymerase (PARP), a cellular substrate of caspases-3 and -7 (see, D. W. Nicholson, Cell Death Differ 6, 1028-42 (1999)). Upon apoptosis, PAR-P is cleaved from a 116 kD to an 85 kD protein.

[3] = system: Jurkat cells; test: DNA fragmentation analysis in Jurkat cells; type: cell-based, human; conditions: 50 μM compound or 1 μM staurosporin, 8 hr
[4] = system: caspase-3 activation; test: Caspase-3 activation by gel filtration fractions of Apaf-1 complexes; type: biochemical; conditions: 20 μM compound, 0.15 μM cyto c; for extent of caspase-3 activation: vehicle alone 0.36
Experimental: FIG. 7 depicts activity of compounds 1-5 at low cyto c concentrations in a purified system. Apaf-1 was incubated with vehicle, cyto c, or cyto c plus 20 μM compound as indicated, and then separated on a Superose 6 gel filtration column. Individual fractions were assayed for relative Apaf-1 concentrations by capture ELISA (bar graph), or the ability to activate procaspase-3 processing in lysates (line graph). The percent of Apaf-1 in apoptosomes was determined by dividing the amount of Apaf-1 in fractions 8-11 by the total amount of Apaf-1. The extent of caspase-3 activation (given in arbitrary units) corresponds to the area under the curve for fractions 8-11 in each panel. Black bars represent fractions used for calculations.
As the compounds appeared to be acting prior to caspase activation, their effect on the oligomerization of Apaf-1 was assessed (K. Cain, D. G. Brown, C. Langlais, G. M. Cohen, J Biol Chem 274, 22686-92 (1999); K. Cain et al., J Biol Chem 275, 6067-70 (2000)). By gel filtration, Apaf-1 normally runs as a monomer of ˜140 kD (FIG. 7) (see, A. Saleh, S. M. Srinivasula, S. Acharya, R. Fishel, E. S. Alnemri, J Biol Chem 274, 17941-5 (1999)). Incubation of Apaf-1 with 5 μM cyto c induces over 90% of the Apaf-1 to form large complexes of ˜700 kD, whereas incubation with 0.15 μM cyto c concentration allowed only 22% of the Apaf-1 to assemble into complexes. However, the addition of 20 μM compound 2 or 5 at the lower cyto c concentration caused the formation of two higher molecular weight complexes: a major peak that runs at the same retention time as the complex seen at 5 μM cyto c (˜700 kD), and a minor peak that elutes in the void volume. […] To determine if the Apaf-1 complexes induced by the compounds at the lower cyto c concentration are competent for caspase activation, procaspase-9, procaspase-3, and dATP were added to fractions from the gel filtration column and assayed for caspase-3 activation. Fractions from samples that had been incubated with 5 μM cyto c strongly activated caspase-3 processing (FIG. 7, panel ii, line graph), with the maximal caspase activation corresponding to the fractions that contained the apoptosome complex. On the other hand, no fractions form the sample without cyto c activated capsase-3 processing (panel i). There was a small but measurable amount of capsase-3 activation when the cyto c concentration was reduced to 0.15 μM (panel iii). However, the extent of caspase-3 activation at the reduced level of cyto c increased approximately 4-fold when either compound 2 or 5 was added to the reaction (from 0.36 arbitrary units for the vehicle alone to 1.57 and 1.4 for compounds 2 and 5, respectively, panels iv and vi). […]

[5] = system: human umbilical vein endothelial cells (HUVEC); test: Cell viability, HUVEC; type: cell-based; conditions: normal cell
Excerpt: (§1) Normal cell lines include peripheral blood lymphocytes (PBL) isolated from donated human blood, non-transformed mammary fibroblasts (MCF-10A), human mammary epithelial cells (HMEC), human umbilical vein endothelial cells (HUVEC), and human prostate epithelial cells (PREC). Transformed cell lines include cell lines from leukemia, breast, lung, ovarian, and epidermal cancers (Table 1).

[6] = system: Molt-4; test: Cell viability, Molt-4; type: cell-based, human; conditions: Molt-4, leukemia
Excerpt: Samples were then probed by immunoblot for (A) caspase-3 activation or (B) cleavage of PARP. (C) DNA fragmentation analysis. […] The DNA was isolated by phenol/chloroform extraction, separated on a 2% agarose gel and visualized by ethidium bromide staining. Cell viability assay.
as §1

Row | increase in caspase-3 activation over vehicle alone [4] | extent of caspase-3 activation [4] | IC50 [6] | Structure (SMILES) | activation of DEVDase activity [1] | cleavage of PARP [2] | DNA fragmentation [3] | IC50 [5]
1 | approximately 4 fold | 1.4 arbitrary units |  | O=C(NCc1ccc(Cl)c(Cl)c1)OC1CCc2ccccc21 (centres unmarked) [Compound 5] | strongly activated DEVDase activity | limited processing | induced DNA fragmentation | 
2 |  |  |  | O=C(NCc1ccc(Cl)c(Cl)c1)OC1CCc2ccccc21 (centres unmarked) [Compound 4] | no activity |  | less pronounced effect | 
3 | approximately 4 fold | 1.57 arbitrary units | 6 µM | O=C1C(=O)N(Cc2ccc(Cl)c(Cl)c2)c2ccccc21 [Compound 2] | strongly activated DEVDase activity | complete cleavage | induced DNA fragmentation | 43 µM
